# Experimental data taken from PubChem BioAssay AID220 (DTP/NCI, 2004).
# Values joined by “and” are separate entries in the source; they are usually repeats but may differ in a detail not shown here. Equal values may be shown once. Inconclusive results are not listed.
# System: CD8F1 mice, subcutaneous mammary adenocarcinoma, T/C%
# Assay: NCI In Vivo Anticancer Drug Screen. Data for tumor model Mammary Adenocarcinoma CD8F1 (subcutaneous) in CD8F1
# Settings: higher = larger tumour
# Outline: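 Transplantable tumors were established in mice, animals were dosed with compound or vehicle, and survival or tumor size was then measured in both groups. The treated result was divided by the control result.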
# [1] = endpoint: median tumor weight (est.), dose: 200.0 mg/kg/injection, schedule: Q07DX005 (ip), vehicle: Klucel (hydroxypropylcellulose) (HPC)
# [2] = endpoint: median tumor weight (est.), dose: 400.0 mg/kg/injection, schedule: Q07DX005 (ip), vehicle: Klucel (hydroxypropylcellulose) (HPC)
# [3] = endpoint: median tumor weight (est.), dose: 6.25 mg/kg/injection, schedule: Q07DX005 (ip), vehicle: saline with Tween-80
# [4] = endpoint: median tumor weight (est.), dose: 12.5 mg/kg/injection, schedule: Q07DX005 (ip), vehicle: saline with Tween-80
# [5] = endpoint: median tumor weight (est.), dose: 25.0 mg/kg/injection, schedule: Q07DX005 (ip), vehicle: saline with Tween-80
# [6] = endpoint: median tumor weight (est.), dose: 50.0 mg/kg/injection, schedule: Q07DX005 (ip), vehicle: saline with Tween-80
# [7] = endpoint: median tumor weight change, dose: 62.5 mg/kg/injection, schedule: Q01DX001 (ip), vehicle: saline with Tween-80
# [8] = endpoint: median tumor weight change, dose: 125.0 mg/kg/injection, schedule: Q01DX001 (ip), vehicle: Klucel (hydroxypropylcellulose) (HPC)
# [9] = endpoint: median tumor weight change, dose: 125.0 mg/kg/injection, schedule: Q01DX001 (ip), vehicle: saline with Tween-80
# [10] = endpoint: median tumor weight (est.), dose: 100.0 mg/kg/injection, schedule: Q07DX005 (ip), vehicle: saline with Tween-80
# [11] = endpoint: median tumor weight change, dose: 250.0 mg/kg/injection, schedule: Q01DX001 (ip), vehicle: saline with Tween-80
compound,measurement,setting,value
O=C1N(CC2CO2)CCN1CC1CO1 (configuration not stated),T/C,"endpoint: median tumor weight change, dose: 125.0 mg/kg/injection, schedule: Q01DX001 (ip), vehicle: suspension in saline",30 % of control
C[C@]12C=CC(=O)C=C1CC[C@@H]1[C@@H]2C(=O)C[C@@]2(C)[C@H]1CC[C@]2(O)C(=O)CO,T/C,"endpoint: mean tumor weight, dose: 25.0 mg/kg/injection, schedule: Q01DX009 (ip), vehicle: saline",173 % of control
same,T/C,"endpoint: mean tumor weight, dose: 37.5 mg/kg/injection, schedule: Q07DX006 (ip), vehicle: saline",37 % of control
same,T/C,"endpoint: mean tumor weight, dose: 75.0 mg/kg/injection, schedule: Q07DX005 (ip), vehicle: saline",93 % of control
same,T/C,"endpoint: mean tumor weight, dose: 75.0 mg/kg/injection, schedule: Q07DX006 (ip), vehicle: saline",42 % of control
same,T/C,"endpoint: mean tumor weight, dose: 75.0 mg/kg/injection, schedule: Q07DX007 (ip), vehicle: saline",10 % of control
same,T/C,"endpoint: mean tumor weight, dose: 100.0 mg/kg/injection, schedule: Q01DX009 (ip), vehicle: saline",61 % of control
same,T/C,"endpoint: mean tumor weight, dose: 150.0 mg/kg/injection, schedule: Q07DX005 (ip), vehicle: saline",95 % of control
same,T/C,"endpoint: mean tumor weight, dose: 150.0 mg/kg/injection, schedule: Q07DX006 (ip), vehicle: saline",23 % of control
same,T/C,"endpoint: mean tumor weight, dose: 200.0 mg/kg/injection, schedule: Q07DX005 (ip), vehicle: saline",9 % of control
same,T/C,"endpoint: mean tumor weight, dose: 300.0 mg/kg/injection, schedule: Q07DX006 (ip), vehicle: saline",6 % of control
same,T/C,"endpoint: mean tumor weight, dose: 400.0 mg/kg/injection, schedule: Q07DX005 (ip), vehicle: saline",21 % of control
same,T/C,"endpoint: mean tumor weight, dose: 800.0 mg/kg/injection, schedule: Q07DX005 (ip), vehicle: saline",1 % of control
same,T/C,"endpoint: median tumor weight (est.), dose: 100.0 mg/kg/injection, schedule: Q07DX005 (ip), vehicle: Klucel (hydroxypropylcellulose) (HPC)",33 % of control
same,T/C,[1],26 % of control
same,T/C,[2],15 % of control
same,T/C,"endpoint: median tumor weight (est.), dose: 800.0 mg/kg/injection, schedule: Q07DX005 (ip), vehicle: Klucel (hydroxypropylcellulose) (HPC)",13 % of control
CC(=O)Oc1ccccc1O,T/C,"endpoint: median tumor weight change, dose: 62.5 mg/kg/injection, schedule: Q01DX001 (ip), vehicle: saline + Tween-80 + alcohol",50 % of control
same,T/C,"endpoint: median tumor weight change, dose: 125.0 mg/kg/injection, schedule: Q01DX001 (ip), vehicle: saline + Tween-80 + alcohol",57 % of control
same,T/C,"endpoint: median tumor weight change, dose: 250.0 mg/kg/injection, schedule: Q01DX001 (ip), vehicle: saline + Tween-80 + alcohol",58 % of control
O=c1s[se]c2ccccc12,T/C,"endpoint: median tumor weight (est.), dose: 3.12 mg/kg/injection, schedule: Q07DX005 (ip), vehicle: saline with Tween-80",86 % of control
same,T/C,[3],187 % of control
same,T/C,[4],156 % of control
same,T/C,[5],82 % of control
same,T/C,[6],81 % of control
C/C(=N\N=C(/[Se])N1CC2CCC(CC2)C1)c1ccccn1,T/C,"endpoint: median tumor weight change, dose: 8.0 mg/kg/injection, schedule: Q01DX001 (ip), vehicle: Klucel (hydroxypropylcellulose) (HPC)",86 % of control
same,T/C,"endpoint: median tumor weight change, dose: 15.62 mg/kg/injection, schedule: Q01DX001 (ip), vehicle: Klucel (hydroxypropylcellulose) (HPC)",114 % of control
same,T/C,"endpoint: median tumor weight change, dose: 15.62 mg/kg/injection, schedule: Q01DX001 (ip), vehicle: saline with Tween-80",109 % of control
same,T/C,"endpoint: median tumor weight change, dose: 16.0 mg/kg/injection, schedule: Q01DX001 (ip), vehicle: Klucel (hydroxypropylcellulose) (HPC)",27 % of control
same,T/C,"endpoint: median tumor weight change, dose: 31.0 mg/kg/injection, schedule: Q01DX001 (ip), vehicle: Klucel (hydroxypropylcellulose) (HPC)",55 % of control
same,T/C,"endpoint: median tumor weight change, dose: 31.25 mg/kg/injection, schedule: Q01DX001 (ip), vehicle: saline with Tween-80",87 % of control
same,T/C,"endpoint: median tumor weight change, dose: 62.0 mg/kg/injection, schedule: Q01DX001 (ip), vehicle: Klucel (hydroxypropylcellulose) (HPC)",18 % of control
same,T/C,"endpoint: median tumor weight change, dose: 62.5 mg/kg/injection, schedule: Q01DX001 (ip), vehicle: Klucel (hydroxypropylcellulose) (HPC)",122 % of control
same,T/C,[7],65 % of control
same,T/C,[8],111 % of control
same,T/C,[9],59 % of control
COC1=CC(=O)C(OC)=C(OC)C1=O,T/C,[3],63 % of control
same,T/C,[4],106 % of control
same,T/C,[5],90 % of control
same,T/C,[6],96 % of control
same,T/C,[10],74 % of control
C[n+]1c(/C=N/NC(N)=S)ccc2ccccc21,T/C,[7],108 % of control
same,T/C,[9],181 % of control
same,T/C,[11],77 % of control
c1ccc([C@H]2CN3CCSC3=N2)cc1,T/C,"endpoint: mean tumor weight, dose: 12.5 mg/kg/injection, schedule: Q07DX005 (ip), vehicle: saline",107 % of control
same,T/C,"endpoint: mean tumor weight, dose: 25.0 mg/kg/injection, schedule: Q07DX005 (ip), vehicle: saline",105 % of control
same,T/C,"endpoint: median tumor weight (est.), dose: 12.5 mg/kg/injection, schedule: Q07DX005 (ip), vehicle: saline",92 % of control
Cc1c(N)nc([C@H](CC(N)=O)NC[C@H](N)C(N)=O)nc1C(=O)N[C@H](C(=O)N[C@H](C)[C@@H](O)[C@H](C)C(=O)N[C@H](C(=O)NCCc1nc(-c2nc(C(=O)NCCC[S+](C)C)cs2)cs1)[C@@H](C)O)C(OC1OC(CO)C(O)C(O)C1OC1OC(CO)C(O)C(OC(N)=O)C1O)c1cnc[nH]1 (some centres not stated),T/C,"endpoint: median tumor weight (est.), dose: 1.0 mg/kg/injection, schedule: Q07DX006 (ip), vehicle: saline",93 % of control
same,T/C,"endpoint: median tumor weight (est.), dose: 2.0 mg/kg/injection, schedule: Q07DX005 (ip), vehicle: saline",25 % of control
same,T/C,"endpoint: median tumor weight (est.), dose: 2.0 mg/kg/injection, schedule: Q07DX006 (ip), vehicle: saline",100 % of control
same,T/C,"endpoint: median tumor weight (est.), dose: 8.0 mg/kg/injection, schedule: Q07DX006 (ip), vehicle: saline",55 % of control
same,T/C,"endpoint: median tumor weight (est.), dose: 16.0 mg/kg/injection, schedule: Q07DX005 (ip), vehicle: saline",10 % of control and 13 % of control and 23 % of control
same,T/C,"endpoint: median tumor weight (est.), dose: 16.0 mg/kg/injection, schedule: Q07DX006 (ip), vehicle: saline",61 % of control
same,T/C,"endpoint: median tumor weight (est.), dose: 32.0 mg/kg/injection, schedule: Q07DX005 (ip), vehicle: saline",6 % of control and 7 % of control
same,T/C,"endpoint: median tumor weight (est.), dose: 32.0 mg/kg/injection, schedule: Q07DX006 (ip), vehicle: saline",8 % of control
same,T/C,"endpoint: median tumor weight (est.), dose: 64.0 mg/kg/injection, schedule: Q07DX005 (ip), vehicle: saline",2 % of control
same,T/C,"endpoint: median tumor weight change, dose: 4.0 mg/kg/injection, schedule: Q01DX001 (ip), vehicle: saline",124 % of control
C/C=C/C=C1/OC(C)=C(C(C)=O)C1=O,T/C,[9],94 % of control and 104 % of control
same,T/C,[11],64 % of control
CCCCCCCCCCCCCCCCCC(=O)Nc1ccn(C2OC(CO)C(O)C2O)c(=O)n1 (configuration not stated),T/C,[4],98 % of control
same,T/C,"endpoint: median tumor weight (est.), dose: 12.5 mg/kg/injection, schedule: Q07DX005 (ip), vehicle: suspension in saline",93 % of control
same,T/C,[5],52 % of control
same,T/C,"endpoint: median tumor weight (est.), dose: 25.0 mg/kg/injection, schedule: Q07DX005 (ip), vehicle: suspension in saline",27 % of control
same,T/C,[6],49 % of control
same,T/C,"endpoint: median tumor weight (est.), dose: 50.0 mg/kg/injection, schedule: Q07DX005 (ip), vehicle: suspension in saline",45 % of control
same,T/C,"endpoint: median tumor weight (est.), dose: 77.0 mg/kg/injection, schedule: Q07DX005 (ip), vehicle: saline with Tween-80",25 % of control
same,T/C,[10],13 % of control
same,T/C,"endpoint: median tumor weight (est.), dose: 100.0 mg/kg/injection, schedule: Q07DX005 (ip), vehicle: suspension in saline",53 % of control
same,T/C,"endpoint: median tumor weight (est.), dose: 118.0 mg/kg/injection, schedule: Q07DX005 (ip), vehicle: saline with Tween-80",7 % of control
CC12CC(C(=O)O)C3(O)CC(C)(C1)CC(C)(C2)C3 (configuration not stated) (tested in a mixture with another compound),T/C,"endpoint: median tumor weight (est.), dose: 12.5 mg/kg/injection, schedule: Q07DX005 (ip), vehicle: Klucel (hydroxypropylcellulose) (HPC)",93 % of control
same,T/C,"endpoint: median tumor weight (est.), dose: 25.0 mg/kg/injection, schedule: Q07DX005 (ip), vehicle: Klucel (hydroxypropylcellulose) (HPC)",78 % of control
same,T/C,"endpoint: median tumor weight (est.), dose: 50.0 mg/kg/injection, schedule: Q07DX005 (ip), vehicle: Klucel (hydroxypropylcellulose) (HPC)",56 % of control
same,T/C,[1],87 % of control
same,T/C,[2],71 % of control
COP12(OCCO1)SC(C(F)(F)F)=C(C(F)(F)F)S2,T/C,"endpoint: median tumor weight (est.), dose: 25.0 mg/kg/injection, schedule: Q07DX005 (ip), vehicle: saline",210 % of control
same,T/C,"endpoint: median tumor weight (est.), dose: 50.0 mg/kg/injection, schedule: Q07DX005 (ip), vehicle: saline",183 % of control
same,T/C,"endpoint: median tumor weight (est.), dose: 100.0 mg/kg/injection, schedule: Q07DX005 (ip), vehicle: saline",351 % of control
same,T/C,"endpoint: median tumor weight (est.), dose: 200.0 mg/kg/injection, schedule: Q07DX005 (ip), vehicle: saline",159 % of control
same,T/C,"endpoint: median tumor weight (est.), dose: 400.0 mg/kg/injection, schedule: Q07DX005 (ip), vehicle: saline",72 % of control
c1cc(OCC2CO2)ccc1OCC1CO1 (configuration not stated),T/C,[8],92 % of control
same,T/C,"endpoint: median tumor weight change, dose: 250.0 mg/kg/injection, schedule: Q01DX001 (ip), vehicle: Klucel (hydroxypropylcellulose) (HPC)",113 % of control
C/C=C/c1cc2n(c1)C(=O)c1cc(OC3OC(C)C(NC)C(C)(O)C3O)c(C)c(O)c1NC2O (configuration not stated),T/C,"endpoint: median tumor weight (est.), dose: 1.0 micrograms/kg/injection, schedule: Q07DX005 (ip), vehicle: saline",60 % of control
